Measured values reported in the METLIN SMRT retention time set (Domingo-Almenara et al. 2019).

Test: gradient 5% acetonitrile 3 min, to 50% in 2 min, to 85% in 15 min, held 3 min, 100 µL/min
Conditions: column: Zorbax Extend-C18 2.1 x 50 mm; eluents: water / acetonitrile, 0.1% formic acid
Summary of the method: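 The system's dead and dwell volumes were 40 μL and 900 μL, with a Zorbax Extend-C18 column (2.1 × 50 mm, 1.8 μm) run at 100 μL/min in water and acetonitrile containing 0.1% formic acid each. Pure standards were analyzed in mixtures of ~100 molecules by HPLC–quadrupole time-of-flight mass spectrometry in positive and negative ionization mode. Retention time was assigned from computationally picked, manually inspected adduct peaks.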

Row | SMILES | RP-LC retention time
1 | O=C(NCc1ccc(Cl)cc1)C1CCN(c2ccc(SCc3ccccc3)nn2)CC1 | 824 s
2 | O=C(NCc1ccccc1)C1=C2CCCN2c2ccc(F)cc2S1(=O)=O | 836 s
3 | CCCN1C(=O)c2cc(C(=O)N3CCCCCC3)nn2CC1(C)C(=O)NC1CCCC1 (stereo not drawn) | 803 s
4 | O=S(=O)(Nc1ccc(Cn2cncn2)cc1)c1ccc(Br)cc1 | 747 s
5 | O=C(CCc1csc(NC(=O)c2ccc(F)cc2)n1)Nc1ccc(-n2cnnn2)cc1 | 741 s
6 | Cc1ccc(CN2CCC(CNC(=O)C3CCCN(c4nccc(C)n4)C3)CC2)cc1 (stereo not drawn) | 594 s
7 | COc1ccc(CCc2nc3nccc(-c4ccc(OC)c(OC)c4)n3n2)cc1OC | 781 s
8 | Cc1cc(N2CCN(C(=O)c3ccc(Br)o3)CC2)nc(N2CCCCC2)n1 | 690 s
9 | Cc1cccc(NC(=O)C2CCN(S(=O)(=O)c3c(C)[nH]c(C)c3C(=O)N3CCCCC3)CC2)n1 | 642 s
10 | CCCCn1c(=O)c2ccccc2n(Cc2nc(-c3ccc(F)c(Br)c3)no2)c1=O | 1320 s
11 | Cc1ccc(NS(=O)(=O)c2cc(-c3nc(C(C)C)cs3)cs2)c(C)c1 | 1210 s
12 | CCN(CC)C(=O)[C@]1(c2ccccc2)C[C@@H]1CN | 655 s
13 | Cc1ccc(F)cc1NS(=O)(=O)c1cc(-c2[nH]ncc2C(=O)N2CCOCC2)oc1C | 704 s
14 | CC(=O)c1cccc(NC(=O)CCc2c(C)nn(-c3cc(N(C)C)ncn3)c2C)c1 | 731 s
15 | Fc1ccccc1-c1nnc(SCc2cccc(C(F)(F)F)c2)o1 | 1070 s
16 | CC(C)(C)CC(C)(C)NC(=O)C1CCN(C(=O)c2ccccc2F)CC1 | 920 s
17 | Cc1ccc(C)c(-c2cc(C(=O)N3CCN(C)CC3)[nH]n2)c1 | 621 s
18 | O=C(Nc1ccccc1)N1CCCC(Cn2c(C3CC3)nc3cccnc32)C1 (stereo not drawn) | 655 s
19 | CC(=O)Nc1ccc(S(=O)(=O)NCCc2cn(CC(C)C)c3ncccc23)cc1 | 726 s

Row | SMILES | RP-LC retention time
20 | O=C(Cn1nc(N2CCCC2)c2ccccc2c1=O)Nc1ccc(F)cc1Cl | 1010 s
21 | CCC(C)c1c(N)n(S(=O)(=O)c2ccc(C)cc2)oc1=O (stereo not drawn) | 932 s
22 | CCC(=O)NCc1ccc(-c2nc(C(C)C)cs2)cc1 | 873 s
23 | CN(C)C(=O)c1ccc2c(c1)N(CC(=O)N1CCN(c3ccccc3)CC1)C(=O)CO2 | 689 s
24 | CCn1c(C(=O)NCCCOC(C)C)cc2c(=O)oc3ccccc3c21 | 916 s
25 | CN(C)c1ccc(-c2nn3c(CSc4ccccc4)nnc3s2)cc1 | 1080 s
26 | COCCNc1c(-c2ccccc2)nc2sc(C(=O)NCc3cccnc3)c(C)n12 | 611 s
27 | CC1(c2ccc3ccccc3c2)CCC(=O)O1 (stereo not drawn) | 970 s
28 | O=C(C1CC1)N1CCC(c2noc(-c3cnccn3)n2)C1 (stereo not drawn) | 621 s
29 | Cc1oc(C2CCN(S(=O)(=O)c3cccc(C#N)c3)CC2)nc1C(=O)N1CCOCC1 | 734 s
30 | CNC(=O)c1cc(C)n(C)n1 | 835 s
31 | CCCc1cc(C(=O)N2CCCC2c2ccc(OC)cc2)no1 (stereo not drawn) | 1120 s
32 | COc1cc(F)ccc1-c1ccnc2nc(CCc3ccccc3)nn12 | 951 s
33 | COc1ccc2[nH]cc(CCN3CC(C(=O)Nc4ccc5c(c4)CCC5)CC3=O)c2c1 (stereo not drawn) | 841 s
34 | CCn1c(C(=O)NCCCc2ccccc2)cc2sccc21 | 1050 s
35 | CCCCS(=O)(=O)c1cc2c(cc1NC(=O)Cc1ccc(C)cc1)n(C)c(=O)n2C | 931 s
36 | COc1ccc(C(=O)Nc2nc(-c3ccc4c(c3)NC(=O)CO4)c(C)s2)cc1OC | 814 s
37 | CC(=O)N1CCC(C(=O)Nc2ncc(C)s2)CC1 | 617 s
38 | Cc1nc(-c2ccc(OC3CCN(C(=O)NCC(C)C)C3)cc2)no1 (stereo not drawn) | 809 s
